The values below come from PubChem BioAssay (NCI).

“And” between values parts separate entries of the source, which are not always exact repeats. Equal entries are not always repeated.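 1) Cells in 96-well plates. 2) Compound, 48 h, 5 concentrations. 3) Linear interpolation between surrounding doses. 4) Unreached endpoint = highest concentration. Abbreviation: GI50, concentration required for 50% inhibition of growth. TGI: concentration producing complete growth inhibition.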

Some test systems named below: NCI-H460 lung; OVCAR-5 ovarian; NCI/ADR-RES ovarian; MCF7 breast; LOX IMVI melanoma; HT29 colon; EKVX NSCLC; NCI-H522 lung; DU-145 prostate; A549 NSCLC.
Assay in all cases: NCI-60 cell line screen, 48 h

For the compound `COc1ccc(-c2c(N)n[nH]c2-c2cc(OC)c(OC)c(OC)c2)cc1`, the GI50 was 0.0993 µM in the test on NCI-H460 lung; 0.572 µM in the test on OVCAR-5 ovarian; 0.2 µM with NCI/ADR-RES ovarian; 0.0732 µM in the test on MCF7 breast; 0.528 µM in the test with LOX IMVI melanoma; 0.247 µM with HT29 colon. The GI50 with EKVX NSCLC is 3.86 µM; in the test with NCI-H522 lung, 0.223 µM; in the test with DU-145 prostate it was 0.272 µM; with A549 NSCLC, 0.147 µM. Besides, the TGI with NCI-H460 lung is 17.2 µM; in the test with OVCAR-5 ovarian it was greater than 100 µM; in the test on NCI/ADR-RES ovarian, 2.22 µM; in the test with MCF7 breast it was greater than 100 µM; in the test with LOX IMVI melanoma, greater than 100 µM; with HT29 colon it was 3.29 µM. For the same compound, the TGI in the test with EKVX NSCLC was greater than 100 µM; in the test on NCI-H522 lung it was 24 µM; in the test on A549 NSCLC, greater than 100 µM.

In the case of `NS(=O)(=O)c1ccc(NC(=O)Nc2ccccc2F)cc1`, the TGI in the test with NCI-H460 lung, with OVCAR-5 ovarian, in the test with NCI/ADR-RES ovarian, with MCF7 breast, with LOX IMVI melanoma and in the test with HT29 colon was greater than 100 µM throughout. Also, the TGI with EKVX NSCLC, with NCI-H522 lung, in the test on DU-145 prostate and in the test with A549 NSCLC was greater than 100 µM each time.

In the case of `O=C(O)C(=O)CBr`, the GI50 in the test with NCI-H460 lung is > 100 µM and 21.2 µM; in the test on OVCAR-5 ovarian it was > 44.2 µM and 18.4 µM; in the test on NCI/ADR-RES ovarian it was > 54.6 µM and 20.2 µM; in the test with MCF7 breast, > 61.4 µM and 29.3 µM; in the test on LOX IMVI melanoma it was > 44.4 µM and 17.3 µM; in the test on HT29 colon, > 47.5 µM and 25.3 µM. Besides, the GI50 with EKVX NSCLC is > 100 µM and 18.9 µM; in the test with NCI-H522 lung, 2.22 µM; in the test with DU-145 prostate, > 61.9 µM and 17 µM; with A549 NSCLC it was > 100 µM and 25 µM. For the same compound, the TGI in the test on NCI-H460 lung was > 100 µM and 41.9 µM; with OVCAR-5 ovarian, > 64.8 µM and 37.5 µM; in the test on NCI/ADR-RES ovarian it was > 94.4 µM and 44 µM; in the test on MCF7 breast, > 100 µM and 94.7 µM; with LOX IMVI melanoma, > 63.1 µM and 31.8 µM; with HT29 colon, > 76.8 µM and 62.5 µM. In addition, the TGI is > 100 µM and 36.7 µM with EKVX NSCLC; > 31.9 µM and 4.66 µM in the test with NCI-H522 lung; > 100 µM and 31.4 µM in the test on DU-145 prostate; > 100 µM and 52.2 µM with A549 NSCLC.

For the compound `O=[As]c1ccc(C(=O)c2ccc(Oc3ccccc3)cc2)cc1` (centres undefined), the GI50 with NCI-H460 lung is 0.0439 µM; in the test on OVCAR-5 ovarian, 0.129 µM; in the test with NCI/ADR-RES ovarian, 0.0378 µM; in the test on MCF7 breast it was 0.0181 µM; in the test with LOX IMVI melanoma, 0.0246 µM; in the test on HT29 colon, 0.0379 µM. In addition, the GI50 in the test with EKVX NSCLC was 0.0688 µM; with NCI-H522 lung, 0.0219 µM; in the test with DU-145 prostate it was 0.0348 µM; with A549 NSCLC, 0.0465 µM. In addition, the TGI in the test with NCI-H460 lung is 0.183 µM; in the test with OVCAR-5 ovarian, 0.264 µM; in the test on NCI/ADR-RES ovarian it was 0.143 µM; in the test with MCF7 breast, 0.0903 µM; in the test with LOX IMVI melanoma, 0.0796 µM; in the test with HT29 colon, 0.154 µM. The TGI came to 0.205 µM in the test with EKVX NSCLC, 0.0865 µM in the test on NCI-H522 lung, 0.123 µM in the test on DU-145 prostate and 0.172 µM in the test with A549 NSCLC.

Turning to `CCOC(=S)SCN1C(=O)c2ccccc2S1(=O)=O`, the GI50 was 45.4 µM in the test with NCI-H460 lung; 14.5 µM with OVCAR-5 ovarian; 14.1 µM with NCI/ADR-RES ovarian; 44.1 µM with MCF7 breast; 17.1 µM in the test with LOX IMVI melanoma; 14 µM with HT29 colon. Besides, the GI50 in the test with EKVX NSCLC was 19.7 µM; with NCI-H522 lung it was 11.3 µM; in the test on DU-145 prostate, 16.5 µM; in the test on A549 NSCLC it was 23.9 µM. Further, the TGI with NCI-H460 lung is greater than 100 µM; with OVCAR-5 ovarian, 29.9 µM; in the test on NCI/ADR-RES ovarian it was 50.8 µM; in the test with MCF7 breast, greater than 100 µM; with LOX IMVI melanoma, 31.9 µM; in the test on HT29 colon, 45.9 µM. In addition, the TGI in the test with EKVX NSCLC came out at 36.6 µM; in the test with NCI-H522 lung, 27.8 µM; with DU-145 prostate it was 34.2 µM; with A549 NSCLC, 58.3 µM.

`O=C1c2ccccc2-c2c1c1ccccc1c(=O)n2-c1ccccc1`: the TGI with NCI-H460 lung is 36.6 µM; in the test on OVCAR-5 ovarian, greater than 100 µM; in the test with NCI/ADR-RES ovarian, 40.8 µM; in the test on MCF7 breast it was greater than 100 µM; with LOX IMVI melanoma, greater than 100 µM; in the test on HT29 colon, greater than 100 µM. For the same compound, the TGI in the test on EKVX NSCLC, in the test with NCI-H522 lung, in the test with DU-145 prostate and in the test with A549 NSCLC was greater than 100 µM throughout.

On to `Cc1cc(O)cc2c1c(=O)c1ccccc1n2C`, for which the TGI in the test on NCI-H460 lung, in the test on OVCAR-5 ovarian, with NCI/ADR-RES ovarian, in the test with MCF7 breast, with LOX IMVI melanoma and in the test on HT29 colon was greater than 100 µM throughout. The TGI in the test on EKVX NSCLC, with NCI-H522 lung, in the test on DU-145 prostate and with A549 NSCLC was greater than 100 µM in each case.

With `O=C(Nc1cc(-c2cccnc2)nc(NCCCN2CCOCC2)n1)c1cc(Br)cc(C(F)(F)F)c1`, the GI50 is 2.97 µM in the test on NCI-H460 lung; 6.33 µM with OVCAR-5 ovarian; 2.6 µM with NCI/ADR-RES ovarian; 2.17 µM in the test on MCF7 breast; 1.62 µM in the test with LOX IMVI melanoma; 2.12 µM with HT29 colon. In addition, the GI50 with EKVX NSCLC is 2.72 µM; with NCI-H522 lung it was 1.95 µM; in the test on DU-145 prostate, 6.7 µM; with A549 NSCLC, 10.1 µM. Further, the TGI was 8.94 µM with NCI-H460 lung; 23.5 µM in the test on OVCAR-5 ovarian; 9.11 µM in the test with NCI/ADR-RES ovarian; 9.22 µM with MCF7 breast; 3.06 µM in the test with LOX IMVI melanoma; 4.95 µM in the test with HT29 colon. Besides, the TGI with EKVX NSCLC was determined as 14.4 µM; in the test with NCI-H522 lung it was 5.31 µM; in the test with DU-145 prostate, 19.1 µM; in the test with A549 NSCLC, 22.2 µM.

Consider `CCOC(=O)Cc1csc(NC(=O)COC(=O)c2ccc(OC)cc2)n1`, for which the GI50 is 33.8 µM with NCI-H460 lung; greater than 51.3 µM in the test on OVCAR-5 ovarian; greater than 100 µM in the test with NCI/ADR-RES ovarian; 64.2 µM with MCF7 breast; 11.1 µM in the test with LOX IMVI melanoma; 30.8 µM in the test with HT29 colon. In addition, the GI50 in the test with EKVX NSCLC was 52.9 µM; in the test on NCI-H522 lung, 19.6 µM; with DU-145 prostate it was 57.2 µM; in the test with A549 NSCLC, greater than 100 µM. Besides, the TGI with NCI-H460 lung was greater than 100 µM; in the test with OVCAR-5 ovarian, greater than 83.8 µM; with NCI/ADR-RES ovarian, greater than 100 µM; in the test on MCF7 breast it was greater than 100 µM; with LOX IMVI melanoma it was greater than 37.5 µM; in the test with HT29 colon it was greater than 80.1 µM. Also, the TGI in the test with EKVX NSCLC was greater than 100 µM; in the test on NCI-H522 lung, 38.5 µM; in the test with DU-145 prostate, greater than 100 µM; in the test on A549 NSCLC, greater than 100 µM.

`Cc1c(C(=O)O[C@H]2[C@@H]3[C@H](C)CC[C@H]3[C@]3(C)O[C@@]2(C2CCCCC2)C[C@H]3OC(=O)CO)ccc2ccccc12`: the GI50 in the test on NCI-H460 lung is 7.87 µM; with OVCAR-5 ovarian, 9.5 µM; in the test with NCI/ADR-RES ovarian it was 5.65 µM; with MCF7 breast it was 7.38 µM; with LOX IMVI melanoma, 7.45 µM; in the test with HT29 colon, 7.07 µM. Moreover, the GI50 in the test with EKVX NSCLC was 6.94 µM; in the test on NCI-H522 lung it was 7.11 µM; with DU-145 prostate, 7.77 µM; in the test with A549 NSCLC, 7.11 µM. Further, the TGI was determined as 16.6 µM with NCI-H460 lung; 17.8 µM in the test on OVCAR-5 ovarian; 12.8 µM in the test with NCI/ADR-RES ovarian; 15.9 µM with MCF7 breast; 14.2 µM in the test with LOX IMVI melanoma; 14.2 µM with HT29 colon. Further, the TGI with EKVX NSCLC is 14.2 µM; in the test with NCI-H522 lung it was 13.8 µM; in the test on DU-145 prostate, 14.6 µM; with A549 NSCLC it was 13.7 µM.
